The values that follow come from patent US9314026B2, “Heterocyclylpyri(mi)dinylpyrazole” (Bayer Intellectual Property GmbH, priority 2011, dated 2016).

Data set [1] in a line: determination of the log P values by HPLC on a reverse phase column (C18), EEC-Directive 79/831 Annex V.A8. The data set is classed as physicochemical. Summed up:
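Log P determined per EEC-Directive 79/831 Annex V.A8 by reverse-phase (C18) HPLC (methods A, B) or UPLC (method C), with mass detection.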

Another data set concerns Sphaerotheca fuliginea. Put plainly: Sphaerotheca test (cucumber)/preventive. The data set is classed as in vivo. The settings on record: Podosphaera fuliginea, 168 h, 500 ppm of active ingredient, preventive, evaluated 7 days after inoculation, 0% = untreated control, 100% = no disease, read-out: efficacy. On the procedure:
(§1) Sphaerotheca Test (Cucumber)/Preventive Solvent: 49 parts by weight of N,N-Dimethylformamide Emulsifier: 1 part by weight of Alkylarylpolyglycolether To produce a suitable preparation of active compound, 1 part by weight of active compound is mixed with the stated amounts of solvent and emulsifier, and the concentrate is diluted with water to the desired concentration. To test for preventive activity, young plants are sprayed with the preparation of active compound at the stated rate of application. One day after this treatment, the plants are inoculated with an aqueous spore suspension of Sphaerotheca fuliginea.

In the next data set the test system is Alternaria solani. The data set can be described thus: Alternaria test (tomato)/preventive. The format is in vivo. The settings on record: 168 h, 500 ppm of active ingredient, preventive, evaluated 7 days after inoculation, read-out: efficacy. On the procedure:
as §1, with “Alternaria” for “Sphaerotheca”, “(Tomato)/Preventive” for “(Cucumber)/Preventive”, “Alternaria solani. […] Then the plants are placed in an incubation cabinet at approximately 20° C. and a relative atmospheric humidity of 96%.” for “Sphaerotheca fuliginea.”

The next data set has as its system Leptosphaeria nodorum. Put plainly: Leptosphaeria test (wheat)/preventive. The settings on record: Parastagonospora nodorum, 500 ppm of active ingredient, preventive, evaluated 7-9 days after inoculation, read-out: efficacy. The format is in vivo. On the procedure: (§2) Leptosphaeria Test (Wheat)/Preventive Solvent: 49 parts by weight of N,N-Dimethylformamide Emulsifier: 1 part by weight of Alkylarylpolyglycolether To produce a suitable preparation of active compound, 1 part by weight of active compound is mixed with the stated amounts of solvent and emulsifier, and the concentrate is diluted with water to the desired concentration. To test for preventive activity, young plants are sprayed with a preparation of active compound at the stated rate of application. One day after this treatment, the plants are inoculated with an aqueous spore suspension of Leptosphaeria nodorum.

A further data set has as its system Pyrenophora teres. Put plainly: Pyrenophora test (barley)/preventive. The settings on record: 500 ppm of active ingredient, preventive, evaluated 7-9 days after inoculation, read-out: efficacy. The data set is classed as in vivo. On the procedure:
as §1, with “Pyrenophora” for “Sphaerotheca”, “(Barley)/Preventive” for “(Cucumber)/Preventive”, “Pyrenophora teres.” for “Sphaerotheca fuliginea.”

For a further data set, the system named is Puccinia recondita. The data set can be described thus: Puccinia test (wheat)/preventive. The data set is classed as in vivo. As to conditions: 500 ppm of active ingredient, preventive, evaluated 7-9 days after inoculation, read-out: efficacy. On the procedure: as §2, with “Puccinia Test (Wheat)/Preventive” for “Leptosphaeria Test (Wheat)/Preventive”, “sprayed with the preparation of” for “sprayed with a preparation of”, “suspension of Puccinia recondita.” for “suspension of Leptosphaeria nodorum.”

A further data set relates to Pyricularia oryzae. The data set can be described thus: whole plant or invertebrate. The data set is classed as in vivo. The settings on record: 168 h, read-out: efficacy.
For the next data set, the system named is Phytophthora infestans. Put plainly: whole plant or invertebrate. The format is in vivo. The settings on record: 72 h, read-out: efficacy.
In a further data set the test system is Plasmopara viticola. The data set can be described thus: Plasmopara test (grapevines)/preventive. The format is in vivo. As to conditions: 100 ppm of active ingredient, preventive, evaluated 6 days after inoculation. On the procedure: Plasmopara Test (Grapevines)/Preventive Solvent: 24.5 parts by weight of acetone • 24.5 parts by weight of dimethylacetamide Emulsifier: 1 part by weight of alkylaryl polyglycol ether To produce a suitable preparation of active compound, 1 part by weight of active compound is mixed with the stated amounts of solvent and emulsifier, and the concentrate is diluted with water to the desired concentration. To test for preventive activity, young plants are sprayed with the preparation of active compound at the stated rate of application. […] The plants are then misted and placed for 1 day in an incubation cabinet.

For the next data set, the system named is Botrytis cinerea. The data set can be described thus: Botrytis test (beans)/preventive. The data set is classed as in vivo. As to conditions: 48 h, 100 ppm of active ingredient, preventive, size of lesions evaluated 2 days after inoculation, read-out: efficacy. On the procedure:
Botrytis Test (Beans)/Preventive Solvent: 24.5 parts by weight of acetone • 24.5 parts by weight of dimethylacetamide Emulsifier: 1 part by weight of alkylaryl polyglycol ether To produce a suitable preparation of active compound, 1 part by weight of active compound is mixed with the stated amounts of solvent and emulsifier, and the concentrate is diluted with water to the desired concentration. To test for preventive activity, young plants are sprayed with the preparation of active compound. After the spray coating has dried on, 2 small pieces of agar covered with growth of Botrytis cinerea are placed on each leaf.

In a further data set the test system is Septoria tritici. The data set can be described thus: Septoria tritici-test (wheat)/preventive. The format is in vivo. As to conditions: 500 ppm of active ingredient, preventive, evaluated 21 days after inoculation. On the procedure: Septoria tritici-Test (Wheat)/Preventive Solvent: 49 parts by weight of n,n-dimethylacetamid Emulsifier: 1 part by weight of alkylaryl polyglycol ether To produce a suitable preparation of active compound, 1 part by weight of active compound or active compound combination is mixed with the stated amounts of solvent and emulsifier, and the concentrate is diluted with water to the desired concentration. To test for preventive activity, young plants are sprayed with the preparation of active compound or active compound combination at the stated rate of application. After the spray coating has been dried, the plants are sprayed with a spore suspension of Septoria tritici.

Data set [2] concerns Fusarium nivale (var. majus). Put plainly: Fusarium nivale (var. majus)-test (wheat)/preventive. The data set is classed as in vivo. The settings on record: Microdochium nivale, 120 h, 500 ppm of active ingredient, preventive, evaluated 5 days after inoculation, read-out: efficacy. On the procedure: Fusarium nivale (Var. Majus)-Test (Wheat)/Preventive Solvent: 49 parts by weight of n,n-dimethylacetamid Emulsifier: 1 part by weight of alkylaryl polyglycol ether To produce a suitable preparation of active compound, 1 part by weight of active compound or active compound combination is mixed with the stated amounts of solvent and emulsifier, and the concentrate is diluted with water to the desired concentration. To test for preventive activity, young plants are sprayed with the preparation of active compound or active compound combination at the stated rate of application. After the spray coating has been dried, the plants are slightly injured by using a sandblast and afterwards they are sprayed with a conidia suspension of Fusarium nivale (var. majus).

In a further data set the test system is Fusarium graminearum. The data set can be described thus: whole plant or invertebrate. The settings on record: in Hordeum vulgare, 120 h, read-out: efficacy. The data set is classed as in vivo.
The test system of a further data set is Venturia inaequalis. Put plainly: Venturia test (apples)/preventive. The format is in vivo. As to conditions: 100 ppm of active ingredient, preventive, evaluated 10 days after inoculation. On the procedure: Venturia Test (Apples)/Preventive Solvent: 24.5 parts by weight of acetone • 24.5 parts by weight of dimethylacetamide Emulsifier: 1 part by weight of alkylaryl polyglycol ether To produce a suitable preparation of active compound, 1 part by weight of active compound is mixed with the stated amounts of solvent and emulsifier, and the concentrate is diluted with water to the desired concentration. To test for preventive activity, young plants are sprayed with the preparation of active compound at the stated rate of application.

`CC(=O)N(C(C)=O)c1cc(-c2c(-c3ccc(F)cc3)nn3c2CCCC3)ccn1` [Example 1, N-acetyl-N-{4-[2-(4-fluorophenyl)-4,5,6,7-tetrahydropyrazolo[1,5-a]pyridin-3-yl]pyridin-2-yl}acetamide]: the chromatographic logP in [1] was determined as 2.42. Moreover, the pest or weed control at 500 ppm in the data set with Sphaerotheca fuliginea was 94%; with Alternaria solani, 100%; in the data set on Leptosphaeria nodorum, 95%; with Pyrenophora teres it was 95%; with Puccinia recondita, 100%; with Pyricularia oryzae it was 80%. The pest or weed control at 500 ppm (in [2]; in the data set on Fusarium graminearum) was 100% in each case. Also, the pest or weed control at 100 ppm is 94% with Phytophthora infestans and 88% in the data set with Botrytis cinerea. Moreover, the values for the efficacy in the data set on Plasmopara viticola and with Septoria tritici were 75% and 100%, respectively.
For `CCC(=O)N(C(C)=O)c1cc(-c2c(-c3ccc(F)cc3)nn3c2CCC3)ccn1` [Example 5, N-acetyl-N-{4-[2-(4-fluorophenyl)-5,6-dihydro-4H-pyrrolo[1,2-b]pyrazol-3-yl]pyridin-2-yl}propanamide], in [1], the chromatographic logP came to 2.43. In addition, the pest or weed control at 500 ppm stood at 100% in the data set on Sphaerotheca fuliginea; 90% with Alternaria solani; 95% in the data set with Leptosphaeria nodorum; 100% in the data set with Pyrenophora teres; 100% with Puccinia recondita; 95% in the data set on Pyricularia oryzae. Further, the pest or weed control at 500 ppm was 100% in data set [2] and 92% with Fusarium graminearum. For the same molecule, the pest or weed control at 100 ppm in the data set on Phytophthora infestans was found to be 83%; in the data set on Botrytis cinerea, 100%. For the same molecule, the efficacy worked out at 94% in the data set with Plasmopara viticola, 99% with Venturia inaequalis and 86% with Septoria tritici.
The molecule `CCC(=O)N(C(C)=O)c1cc(-c2c(-c3ccc(F)cc3)nn3c2CCC3C)ccn1` (stereo not drawn) [Example 6, N-acetyl-N-{4-[2-(4-fluorophenyl)-6-methyl-5,6-dihydro-4H-pyrrolo[1,2-b]pyrazol-3-yl]pyridin-2-yl}propanamide] returned a chromatographic logP in [1] of 2.78. Further, the pest or weed control at 500 ppm was determined as 95% with Sphaerotheca fuliginea; 70% with Alternaria solani; 95% with Leptosphaeria nodorum; 100% with Pyrenophora teres; 100% in the data set with Puccinia recondita; 90% in the data set with Pyricularia oryzae. For the same molecule, the pest or weed control at 500 ppm in data set [2] stood at 100%; in the data set with Fusarium graminearum, 83%. The pest or weed control at 100 ppm with Phytophthora infestans came to 91%; with Botrytis cinerea it was 89%. Further, the efficacy in the data set with Plasmopara viticola is listed as 94%; with Venturia inaequalis, 98%; in the data set on Septoria tritici it was 86%.
`CCC(=O)N(C(=O)CC)c1cc(-c2c(-c3ccc(F)cc3)nn3c2CCC3)ccn1` [Example 7, N-{4-[2-(4-fluorophenyl)-5,6-dihydro-4H-pyrrolo[1,2-b]pyrazol-3-yl]pyridin-2-yl}-N-propionylpropanamide] returned a chromatographic logP in [1] of 2.81. For the same molecule, the pest or weed control at 500 ppm in the data set with Sphaerotheca fuliginea was 98%; in the data set with Alternaria solani, 90%; in the data set on Leptosphaeria nodorum it was 90%; in the data set with Pyrenophora teres, 95%; in the data set with Puccinia recondita, 95%; in the data set with Pyricularia oryzae, 70%. Moreover, the pest or weed control at 500 ppm in data set [2] is 100%; in the data set with Fusarium graminearum it was 92%. In addition, the pest or weed control at 100 ppm in the data set on Phytophthora infestans is 95%; with Botrytis cinerea, 99%. The results for the efficacy in the data set with Plasmopara viticola, in the data set on Venturia inaequalis and with Septoria tritici were 100%, 100% and 86%, respectively.
As to `CCC(=O)N(C(=O)C1CC1)c1cc(-c2c(-c3ccc(F)cc3)nn3c2CCC3)ccn1` [Example 9, N-{4-[2-(4-fluorophenyl)-5,6-dihydro-4H-pyrrolo[1,2-b]pyrazol-3-yl]pyridin-2-yl}-N-propionylcyclopropanecarboxamide], the chromatographic logP in [1] amounted to 2.87. Moreover, the pest or weed control at 500 ppm was determined as 100% with Sphaerotheca fuliginea; 95% in the data set on Leptosphaeria nodorum; 95% with Pyrenophora teres; 100% in the data set on Puccinia recondita; 90% in the data set on Pyricularia oryzae. The pest or weed control at 100 ppm came to 79% in the data set with Phytophthora infestans and 96% with Botrytis cinerea. The efficacy in the data set with Plasmopara viticola is 95%; with Venturia inaequalis, 100%.
For the molecule `CCOC(=O)N(C(=O)C1CC1)c1cc(-c2c(-c3ccc(F)cc3)nn3c2CCC3)ccn1` [Example 11, ethyl (cyclopropylcarbonyl){4-[2-(4-fluorophenyl)-5,6-dihydro-4H-pyrrolo[1,2-b]pyrazol-3-yl]pyridin-2-yl}carbamate], the chromatographic logP in data set [1] was 2.78. Moreover, the pest or weed control at 500 ppm in the data set with Sphaerotheca fuliginea was 95%; in the data set on Alternaria solani it was 95%; in the data set with Leptosphaeria nodorum it was 95%; in the data set with Pyrenophora teres it was 95%; in the data set on Puccinia recondita it was 100%; in the data set with Pyricularia oryzae, 70%. The pest or weed control at 100 ppm in the data set on Phytophthora infestans was found to be 86%; in the data set on Botrytis cinerea, 74%. Further, in the data set with Plasmopara viticola, the efficacy came out at 90%.

Usually chromatographic logP stands for lipophilicity estimated from chromatographic retention. High values mean higher lipophilicity, low ones lower lipophilicity.
